Laboratory results: patent publication US11760766B2, “Ionic liquids containing quaternary ammonium and phosphonium cations, and their use as environmentally friendly lubricant additives” (UT-Battelle, LLC, priority 2020, dated 2023)
Where two headings read alike, the source gives them in different places.

Legend:
Ceriodaphnia dubia = details: in vivo
[1] = Solubility of ILs in base oils, by centrifuging the oil-additive blends; details: centrifuged 13,000 rpm 5 min

Compound	Total reproductive output (number of neonates) in surviving Daphnia (Ceriodaphnia dubia)	Survival rate of Daphnia (Ceriodaphnia dubia)	further results
Trioctylammonium di(2-ethylhexyl)phosphate [[N888H][DEHP], reference compound]	0		
CCCCOP(=O)(O)OCCCC.CN1CCOCC1 [[NMM][DBP]]		> 70%	
CCCC[P+](CC)(CCCC)CCCC [[P4442][DEP], Tributyl(ethyl)phosphonium diethyl phosphate]			IL's solubility in base oil ([1]; OSP-32): >5% wt. %; IL's solubility in base oil ([1]; PAG (50-HB-170)): >5% wt. %; Number of surviving Daphnia (Ceriodaphnia dubia; Ceriodaphnia dubia): 10; Survival rate of Daphnia (Ceriodaphnia dubia; Ceriodaphnia dubia): > 70%; Mortality / survival of Daphnia, in words (Ceriodaphnia dubia): did not cause any mortality
CCCCOP(=O)(O)OCCCC.CN1CCOCC1 [[NMM] [DBP]]		70-90%	
CCCCCCN(CCCCCC)CCCCCC.CCCCOP(=O)(O)OCCCC [[N666H][DBP]]		10%	
CCCCOP(=O)(O)OCCCC.CN1CCCCC1 [[NMPPR] [DBP]]		70-90%	
Tetraoctylammonium octadecanoate [[N8888][C17H35COO]]	0		Mortality / survival of Daphnia, in words (Ceriodaphnia dubia): No Daphnia survived for three days
CCCCOP(=O)([O-])OCCCC.CCCC[N+](C)(CCCC)CCCC [[N4441] [DBP]]		> 70%	
CCCCOP(=O)(O)OCCCC.CN1CCCCC1 [[NMPPR][DBP]]		> 70%	
tributyl(methyl)ammonium dibutyl phosphate [[N4441][DBP]]			Mortality / survival of Daphnia, in words (Ceriodaphnia dubia): did not cause any mortality
Tetraoctylphosphonium bis(2-ethylhexyl) phosphate [[P8888][DEHP], reference compound]	0		Time of exposure after which all Daphnia were killed (Ceriodaphnia dubia): one
CCCCCCCCN(CCCCCCCC)CCCCCCCC.CCCCOP(=O)(O)OCCCC [[N888H][DBP]]	0	0%	
